Experimental data: PubChem BioAssay AID296 (DTP/NCI, 2004)
Several values for one entry are separate records, joined by “and”; a condition that tells them apart may be missing. Equal entries are not always repeated. Inconclusive results are not listed.

Tested on: MX-1 breast xenograft, nude mice, tumor weight T/C
Experiment: NCI In Vivo Anticancer Drug Screen. Data for tumor model Human Mammary Carcinoma MX-1 Xenograft (intrarenal inoculation) in NU/NU Swiss (nude) mice
Conditions: endpoint: mean tumor weight change, higher = larger tumour
How it was run: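 Mice carrying the implanted tumor receive either test agent or vehicle. Tumor size or survival is then recorded for both groups. Results are stated as the treated-to-control quotient.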

[1] = dose: 100.0 mg/kg/injection, schedule: Q04DX003 (sc), vehicle: saline
[2] = dose: 300.0 mg/kg/injection, schedule: Q04DX003 (sc), vehicle: Klucel (hydroxypropylcellulose) (HPC)
[3] = dose: 600.0 mg/kg/injection, schedule: Q04DX003 (sc), vehicle: Klucel (hydroxypropylcellulose) (HPC)
[4] = dose: 1200.0 mg/kg/injection, schedule: Q04DX003 (sc), vehicle: Klucel (hydroxypropylcellulose) (HPC)
[5] = dose: 300.0 mg/kg/injection, schedule: Q04DX003 (sc), vehicle: saline with Tween-80
[6] = dose: 600.0 mg/kg/injection, schedule: Q04DX003 (sc), vehicle: saline with Tween-80
[7] = dose: 1200.0 mg/kg/injection, schedule: Q04DX003 (sc), vehicle: saline with Tween-80
[8] = dose: 2400.0 mg/kg/injection, schedule: Q04DX003 (sc), vehicle: saline with Tween-80

COP12(OCCO1)SC(C(F)(F)F)=C(C(F)(F)F)S2
T/C (dose: 125.0 mg/kg/injection, schedule: Q04DX003 (sc), vehicle: saline with Tween-80): 119 % of control
T/C (dose: 250.0 mg/kg/injection, schedule: Q04DX003 (sc), vehicle: saline with Tween-80): 92 % of control

COC1=C2C[C@@H](C)C[C@@H](OC)[C@@H](O)[C@H](C)/C=C(\C)[C@@H](OC(N)=O)[C@H](OC)/C=C\C=C(/C)C(=O)NC(=CC1=O)C2=O
T/C (dose: 4.0 mg/kg/injection, schedule: Q04DX003 (sc), vehicle: saline): 102 % of control
T/C (dose: 8.0 mg/kg/injection, schedule: Q04DX003 (sc), vehicle: saline): 89 % of control
T/C (dose: 16.0 mg/kg/injection, schedule: Q04DX003 (sc), vehicle: saline): 89 % of control
T/C (dose: 32.0 mg/kg/injection, schedule: Q04DX003 (sc), vehicle: saline): 88 % of control and 94 % of control
T/C (dose: 64.0 mg/kg/injection, schedule: Q04DX003 (sc), vehicle: saline): 85 % of control
T/C (dose: 128.0 mg/kg/injection, schedule: Q04DX003 (sc), vehicle: saline): 66 % of control

CN1CCN(c2ccc3nc(-c4ccc5nc(-c6ccc(O)cc6)[nH]c5c4)[nH]c3c2)CC1
T/C [1]: 69 % of control
T/C (dose: 225.0 mg/kg/injection, schedule: Q04DX003 (sc), vehicle: saline): 100 % of control
T/C (dose: 225.0 mg/kg/injection, schedule: Q04DX003 (sc), vehicle: suspension in saline): 102 % of control
T/C (dose: 250.0 mg/kg/injection, schedule: Q04DX003 (sc), vehicle: suspension in saline): 67 % of control
T/C (dose: 400.0 mg/kg/injection, schedule: Q04DX003 (sc), vehicle: saline): 52 % of control
T/C (dose: 500.0 mg/kg/injection, schedule: Q04DX003 (sc), vehicle: saline): 123 % of control
T/C (dose: 800.0 mg/kg/injection, schedule: Q04DX003 (sc), vehicle: suspension in saline): 176 % of control
T/C (dose: 1000.0 mg/kg/injection, schedule: Q04DX003 (sc), vehicle: saline): 69 % of control
T/C (dose: 1000.0 mg/kg/injection, schedule: Q04DX003 (sc), vehicle: suspension in saline): 199 % of control

CCN(CC)CCCNc1nccc2c(C)c3[nH]c4ccncc4c3cc12
T/C (dose: 5.0 mg/kg/injection, schedule: Q01DX010 (sc), vehicle: other): 166 % of control
T/C (dose: 10.0 mg/kg/injection, schedule: Q01DX010 (sc), vehicle: other): 88 % of control

CC1(O)C=CC(=O)C=C1
T/C (dose: 25.0 mg/kg/injection, schedule: Q04DX003 (ip), vehicle: water): 109 % of control
T/C (dose: 50.0 mg/kg/injection, schedule: Q04DX003 (ip), vehicle: water): 89 % of control

c1ccc([C@H]2CN3CCSC3=N2)cc1
T/C (dose: 15.0 mg/kg/injection, schedule: Q04DX003 (sc), vehicle: saline): 80 % of control
T/C (dose: 30.0 mg/kg/injection, schedule: Q04DX003 (sc), vehicle: saline): 71 % of control
T/C (dose: 60.0 mg/kg/injection, schedule: Q04DX003 (sc), vehicle: saline): 75 % of control

O=c1[nH]cc(F)c(=O)[nH]1
T/C (dose: 10.0 mg/kg/injection, schedule: Q01DX010 (sc), vehicle: saline): 67 % of control and 90 % of control
T/C (dose: 50.0 mg/kg/injection, schedule: Q04DX003 (sc), vehicle: saline): 44 % of control and 54 % of control and 55 % of control
T/C [1]: 13 % of control

CC1CC(C)CC(C)C(O)/C(C#N)=C/C=C/CC(C2CCCC2C(=O)O)OC(=O)CC(O)C(C)C1 (centres undefined)
T/C (dose: 6.0 mg/kg/injection, schedule: Q04DX003 (sc), vehicle: Klucel (hydroxypropylcellulose) (HPC)): 87 % of control
T/C (dose: 12.0 mg/kg/injection, schedule: Q04DX003 (sc), vehicle: Klucel (hydroxypropylcellulose) (HPC)): 79 % of control

O=C1C=C(C2OC(CO)C(O)C2O)C(=O)N1 (centres undefined)
T/C (dose: 6.25 mg/kg/injection, schedule: Q01DX010 (sc), vehicle: saline): 79 % of control
T/C (dose: 12.5 mg/kg/injection, schedule: Q01DX010 (sc), vehicle: saline): 123 % of control

O=C(O)CCCc1ccc(N(CCCl)CCCl)cc1
T/C (dose: 4.0 mg/kg/injection, schedule: Q01DX010 (sc), vehicle: saline with Tween-80): -6 % of control
T/C (dose: 16.0 mg/kg/injection, schedule: Q01DX010 (sc), vehicle: saline with Tween-80): -65 % of control

CC(=O)OCC1OC(n2ccc(N)nc2=O)C(OC(C)=O)C1OC(C)=O (centres undefined)
T/C (dose: 150.0 mg/kg/injection, schedule: Q04DX003 (sc), vehicle: suspension in saline): 89 % of control
T/C (dose: 300.0 mg/kg/injection, schedule: Q04DX003 (sc), vehicle: saline): 107 % of control
T/C (dose: 600.0 mg/kg/injection, schedule: Q04DX003 (sc), vehicle: saline): 82 % of control
T/C (dose: 1200.0 mg/kg/injection, schedule: Q04DX003 (sc), vehicle: saline): 84 % of control
T/C (dose: 2400.0 mg/kg/injection, schedule: Q04DX003 (sc), vehicle: suspension in saline): 14 % of control

COC(=O)C[C@](O)(CCCC(C)(C)O)C(=O)O[C@@H]1C(OC)=C[C@]23CCCN2CCc2cc4c(cc2[C@H]13)OCO4
T/C (dose: 0.5 mg/kg/injection, schedule: Q01DX010 (sc), vehicle: saline): 177 % of control
T/C (dose: 1.0 mg/kg/injection, schedule: Q01DX010 (sc), vehicle: saline): 110 % of control

c1cc2n(n1)CCN2
T/C (dose: 50.0 mg/kg/injection, schedule: Q01DX010 (sc), vehicle: saline): 75 % of control and 77 % of control

CC[C@@]1(O)C[C@H](OC2CC(N(C)C)C(OC3CC(O)C(OC4CCC(=O)C(C)O4)C(C)O3)C(C)O2)c2c(cc3c(c2O)C(=O)c2c(O)cccc2C3=O)[C@H]1C(=O)OC (some centres undefined)
T/C (dose: 0.25 mg/kg/injection, schedule: Q01DX010 (sc), vehicle: water): 91 % of control
T/C (dose: 0.5 mg/kg/injection, schedule: Q01DX010 (ip), vehicle: water): 74 % of control and 78 % of control
T/C (dose: 0.5 mg/kg/injection, schedule: Q01DX010 (sc), vehicle: water): 113 % of control
T/C (dose: 1.0 mg/kg/injection, schedule: Q01DX010 (sc), vehicle: water): 35 % of control
T/C (dose: 2.0 mg/kg/injection, schedule: Q01DX010 (ip), vehicle: water): 7 % of control
T/C (dose: 4.0 mg/kg/injection, schedule: Q01DX010 (sc), vehicle: water): 65 % of control

CC(=O)OCC1OC(OC2=C(CC=C(C)C)C(=O)c3ccccc3C2=O)C(OC(C)=O)C(OC(C)=O)C1OC(C)=O (centres undefined)
T/C (dose: 400.0 mg/kg/injection, schedule: Q01DX010 (sc), vehicle: Klucel (hydroxypropylcellulose) (HPC)): 194 % of control
T/C (dose: 800.0 mg/kg/injection, schedule: Q01DX010 (sc), vehicle: Klucel (hydroxypropylcellulose) (HPC)): 52 % of control

COc1cc(OC)c(NC(=O)ON2C(=O)c3ccccc3C2=O)cc1Cl
T/C (dose: 50.0 mg/kg/injection, schedule: Q04DX003 (sc), vehicle: saline with Tween-80): 95 % of control
T/C (dose: 100.0 mg/kg/injection, schedule: Q04DX003 (sc), vehicle: saline with Tween-80): 103 % of control
T/C (dose: 200.0 mg/kg/injection, schedule: Q04DX003 (sc), vehicle: saline with Tween-80): 85 % of control
T/C (dose: 400.0 mg/kg/injection, schedule: Q04DX003 (sc), vehicle: saline with Tween-80): 114 % of control

Oc1c(Cl)cc(Cl)cc1C1N2CCCCC2C2c3cccn3-c3ccccc3N21 (centres undefined)
T/C [2]: 105 % of control
T/C [3]: 66 % of control
T/C [4]: 88 % of control
T/C (dose: 2400.0 mg/kg/injection, schedule: Q04DX003 (sc), vehicle: Klucel (hydroxypropylcellulose) (HPC)): 82 % of control

CCOC(=O)C1(c2ccccc2)C(=O)Oc2ccccc21 (centres undefined)
T/C [5]: 99 % of control
T/C [6]: 103 % of control
T/C [7]: 101 % of control
T/C [8]: 99 % of control

OCCO
T/C (dose: 8.0 % in 0.5 ml injection vol, schedule: Q04DX003 (sc), vehicle: water): 69 % of control
T/C (dose: 16.0 % in 0.5 ml injection vol, schedule: Q04DX003 (sc), vehicle: water): 87 % of control

C#C[C@]1(O)CC[C@H]2[C@@H]3CCc4cc(O)ccc4[C@H]3CC[C@@]21C
T/C (dose: 150.0 mg/kg/injection, schedule: Q04DX003 (sc), vehicle: Klucel (hydroxypropylcellulose) (HPC)): 150 % of control
T/C [2]: 94 % of control
T/C [3]: 80 % of control
T/C [4]: 122 % of control

O=C1CN(CO)C(=O)N1CO
T/C (dose: 100.0 mg/kg/injection, schedule: Q04DX003 (ip), vehicle: saline): 93 % of control
T/C (dose: 200.0 mg/kg/injection, schedule: Q04DX003 (ip), vehicle: saline): 67 % of control
T/C (dose: 400.0 mg/kg/injection, schedule: Q04DX003 (ip), vehicle: saline): 28 % of control

CCCCCCCCCCCCCCCCCCCCCC(=O)Nc1ccn(C2OC(CO)C(O)C2O)c(=O)n1 (centres undefined)
T/C [5]: 123 % of control
T/C [6]: 87 % of control
T/C [7]: 68 % of control
T/C [8]: 84 % of control
